Here are results for four compounds from patent publication US6835398B2, “Method of administering high-dose, oral magnesium for treatment of chronic pain syndrome of erythromelalgia” (priority 2001, dated 2004).

For data set [1], the system named is patient with CRPS1 / erythromelalgia (EM). Kind of data set: Case study patient #1 (CRPS1/EM): pain and symptom response. It is filed as in vivo, human.
Source text: A magnesium treatment regimen was then investigated.
When the infusions were postponed, small doses of the MgSO4 solution was mixed with water and ingested orally.
The subject of data set [2] is patients with erythromelalgia (EM). Kind of data set: Tolerability of oral magnesium products in patients (diarrhea, adverse effects, achievable dose). From the text:
(§1) Thirteen patients took nonprescription magnesium oxide ([…]) or magnesium-protein (Mg-protein) products in gradually escalating and divided doses totaling 0.6-5 grams/day elemental magnesium under their physicians' supervision.
(§2) Although magnesium's potential benefits for many disorders have been described, patients' lack of tolerance to traditional therapeutic doses has precluded widespread utilization. Indeed, some patients have difficulty tolerating the RDA of magnesium. […] All doses were divided and taken at 4-6 hour intervals with copious amounts of water. All patients had normal renal function, which is required for undertaking magnesium therapy.

Data set [3] has the same test system. As to the kind of experiment: High-dose oral magnesium therapy in erythromelalgia patients: pain and symptom response. Type of data set: in vivo, human. As to conditions: for worsening of EM: one patient.
Source text: as §1
Specifically, it is most important that the magnesium compound (sulfate, oxide, carbonate, etc.) be either very finely divided or dissolved. […] Ideally, dosing should begin at RDA levels and increased as tolerance increases, until pain and/or symptom reduction is achieved. This level can then be maintained longterm. This pain reduction and long term dosing can begin as low as 600 mg elemental Mg/day and may be increased until gastrointestinal distress resulting from administration is consistent. This may occur at a dosage as high as 5 g/day elemental magnesium or even higher. Preferably, at least 1 gm magnesium/day should be administered, more preferably 1.2 gm, more preferably 1.5 gm, still more preferably 2 gm Mg/day. Still more preferably 2.5 gm Mg/day, and most preferably at least 3 gm Mg/day should be administered. To reduce the likelihood of gastrointestinal distress, daily dosages should be divided into several smaller administrations of not more than 500 mg elemental magnesium, preferably not more than 250 mg, and more preferably not more than […] Magnesium per dose. These can be administered several times daily to achieve the correct total daily dose. Small doses taken every 1-2 hours can be used, as can slightly larger doses taken every 4-6 hours. The frequency and size of doses is not as important as the total daily dose, provided the patient can tolerate the regimen.
as §2

The subject of another data set is subjects. As to conditions: 250 mg two times daily, oral, one study; cited from earlier work.

“Also recorded” adds a separate entry of the source.

`O=S(=O)([O-])[O-].[Mg+2]` [MgSO4, magnesium sulfate]: the serum magnesium measurements entry (patient #1, also two hours after ingesting two grams of MgSO4) is reported as “normal”. Besides, the “repeated chemistries and urine studies” value (patient #1, up to 12 grams/day orally) was “normal”. In addition, the “pain and symptom response” value in data set [1] is recorded as “Pain was completely eliminated; also recorded: nearly total remission from EM”. Also, the adverse effects entry in data set [2] (patient #1) is “only occasional, mild adverse effects (loose stools, blurred vision)”. The same compound came in with a daily dose reached in data set [2] (patient #1, 50% MgSO4 solution mixed with water, oral, increased very gradually) of 12 grams MgSO4/day.

Regarding `[O]=[Mg]` [magnesium oxide], in data set [3] (person with CIPD and severe EM, escalating doses to 4-5 grams/day), the “pain and function response” value is “significantly less pain and improved function”. Moreover, in data set [3] (person with EM, escalating doses to 4-5 grams/day, within two weeks), the “pain and flaring response” value is “marked reduction in pain and flaring”. This compound also returned a dose reached in data set [2] (one patient unable to tolerate 2 grams of magnesium tablets, blended in water) of 4.5 grams/day.

The compound `[Mg+2]` [magnesium] had a patients who improved in data set [3] (4 of the 6 patients who reached doses above 1 gram/day (1.2 to 7 grams/day)) of 67%. Besides, in data set [3] (6 of 8 who reached therapeutic levels, with the two already known cases), the “patients who obtained benefit” value turned out to be 75%. The “patients who obtained substantial pain reduction and improvement in other symptoms” value in data set [3] (escalating divided doses totaling 0.6-5 grams/day elemental magnesium, 13 refractory patients) was “eight of these thirteen”. In data set [3], the “worsening of EM” value is given as “worsened”. Besides, in data set [3] (patients who had previously received nifedipine and/or diltiazem), the “effectiveness and tolerability compared with nifedipine and/or diltiazem” value is “more effective and better tolerated”. In addition, the “patients who reported improvement” value in data set [3] (six of 11 EM patients, after 2 months) is 55%. Further, the “adverse effects in subjects” value with subjects is 45.7%.

Regarding `COc1ccc([C@@H]2Sc3ccccc3N(CCN(C)C)C(=O)[C@@H]2OC(C)=O)cc1` [diltiazem], in data set [3], the “worsening of EM” value was “worsening”. Besides, in data set [1], the “pain and symptom response” value was “greater, but still limited, benefit”.
